Reference: ChEMBL document CHEMBL5728800, “JAK inhibitors” (2021)

Key:
[1] = molecular target: Non-receptor tyrosine-protein kinase TYK2 (Homo sapiens, UniProt P29597); assay: (§1) JAK/TYK2 Assay: 10 mM test compound stock or 1 mM control compound stock (tofocitinib, ruxolitinib or staurosporine) in DMSO was diluted to 0.4 mM in DMSO. A 3-fold series dilution was then performed in DMSO to generate 10 different compound concentrations. The assay was carried out in 384-well white plate. 0.5 uL of 40× compound DMSO solution at different concentrations was mixed with 10 uL 2× enzyme prepared in reaction buffer (20 mM HEPES, 10 mM MgCl2, 0.01% Tween, 1 mM DTT, pH 7.5). 10 uL 2× substrate mixture prepared in reaction buffer was then added to start the reaction. A short spin was done to settle down all solutions to the bottom of the plate. Final concentrations of test compound in the reaction mixture were 10000, 3333, 1111, 370, 123, 41.2, 13.7, 4.57, 1.52and 0.51 nM. Concentrations of control compound were ten times less. Enzymatic reaction was conducted at 25° C. for 1-2 hours. 10 uL of Kinase Glo Reagents was added to stop the reaction and generate the luminescent signal which was measured using Envision. Luminescence signal was inversely related to kinase activity. […] The mixture without any compound was the positive control.
Non-receptor tyrosine-protein kinase TYK2, sequence (P29597 whole entry): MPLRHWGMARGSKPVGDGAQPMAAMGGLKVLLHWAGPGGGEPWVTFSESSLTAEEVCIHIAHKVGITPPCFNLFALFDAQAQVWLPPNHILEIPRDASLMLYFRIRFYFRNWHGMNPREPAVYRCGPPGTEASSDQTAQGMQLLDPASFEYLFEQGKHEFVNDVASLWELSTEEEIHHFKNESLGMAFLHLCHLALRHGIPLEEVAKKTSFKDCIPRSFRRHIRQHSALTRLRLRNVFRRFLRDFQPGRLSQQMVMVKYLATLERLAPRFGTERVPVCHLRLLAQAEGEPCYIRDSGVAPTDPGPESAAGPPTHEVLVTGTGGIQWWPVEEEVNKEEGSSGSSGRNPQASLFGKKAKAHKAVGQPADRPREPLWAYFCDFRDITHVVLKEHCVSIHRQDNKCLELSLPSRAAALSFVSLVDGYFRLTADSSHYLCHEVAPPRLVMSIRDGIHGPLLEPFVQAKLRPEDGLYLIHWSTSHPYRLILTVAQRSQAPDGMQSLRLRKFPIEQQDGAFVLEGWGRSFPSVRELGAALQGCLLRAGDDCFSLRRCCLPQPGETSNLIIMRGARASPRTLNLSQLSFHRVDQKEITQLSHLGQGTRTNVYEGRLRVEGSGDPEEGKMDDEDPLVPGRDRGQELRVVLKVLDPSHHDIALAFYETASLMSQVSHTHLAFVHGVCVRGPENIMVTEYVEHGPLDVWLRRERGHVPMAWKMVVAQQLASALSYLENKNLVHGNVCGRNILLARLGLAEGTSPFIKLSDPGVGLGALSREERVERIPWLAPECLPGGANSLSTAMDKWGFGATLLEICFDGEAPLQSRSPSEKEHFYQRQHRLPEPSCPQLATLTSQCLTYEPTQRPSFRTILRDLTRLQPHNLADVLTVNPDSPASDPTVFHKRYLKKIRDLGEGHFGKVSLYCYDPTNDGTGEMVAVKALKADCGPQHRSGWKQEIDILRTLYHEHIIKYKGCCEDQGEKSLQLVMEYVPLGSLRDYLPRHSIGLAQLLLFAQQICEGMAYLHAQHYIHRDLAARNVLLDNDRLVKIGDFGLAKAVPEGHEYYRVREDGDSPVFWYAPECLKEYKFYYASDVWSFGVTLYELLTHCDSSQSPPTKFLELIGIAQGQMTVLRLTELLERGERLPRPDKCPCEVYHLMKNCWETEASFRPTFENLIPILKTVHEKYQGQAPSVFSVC

[2] = molecular target: Tyrosine-protein kinase JAK1 (Homo sapiens, UniProt P23458); assay: as §1
Tyrosine-protein kinase JAK1, sequence (P23458 whole entry): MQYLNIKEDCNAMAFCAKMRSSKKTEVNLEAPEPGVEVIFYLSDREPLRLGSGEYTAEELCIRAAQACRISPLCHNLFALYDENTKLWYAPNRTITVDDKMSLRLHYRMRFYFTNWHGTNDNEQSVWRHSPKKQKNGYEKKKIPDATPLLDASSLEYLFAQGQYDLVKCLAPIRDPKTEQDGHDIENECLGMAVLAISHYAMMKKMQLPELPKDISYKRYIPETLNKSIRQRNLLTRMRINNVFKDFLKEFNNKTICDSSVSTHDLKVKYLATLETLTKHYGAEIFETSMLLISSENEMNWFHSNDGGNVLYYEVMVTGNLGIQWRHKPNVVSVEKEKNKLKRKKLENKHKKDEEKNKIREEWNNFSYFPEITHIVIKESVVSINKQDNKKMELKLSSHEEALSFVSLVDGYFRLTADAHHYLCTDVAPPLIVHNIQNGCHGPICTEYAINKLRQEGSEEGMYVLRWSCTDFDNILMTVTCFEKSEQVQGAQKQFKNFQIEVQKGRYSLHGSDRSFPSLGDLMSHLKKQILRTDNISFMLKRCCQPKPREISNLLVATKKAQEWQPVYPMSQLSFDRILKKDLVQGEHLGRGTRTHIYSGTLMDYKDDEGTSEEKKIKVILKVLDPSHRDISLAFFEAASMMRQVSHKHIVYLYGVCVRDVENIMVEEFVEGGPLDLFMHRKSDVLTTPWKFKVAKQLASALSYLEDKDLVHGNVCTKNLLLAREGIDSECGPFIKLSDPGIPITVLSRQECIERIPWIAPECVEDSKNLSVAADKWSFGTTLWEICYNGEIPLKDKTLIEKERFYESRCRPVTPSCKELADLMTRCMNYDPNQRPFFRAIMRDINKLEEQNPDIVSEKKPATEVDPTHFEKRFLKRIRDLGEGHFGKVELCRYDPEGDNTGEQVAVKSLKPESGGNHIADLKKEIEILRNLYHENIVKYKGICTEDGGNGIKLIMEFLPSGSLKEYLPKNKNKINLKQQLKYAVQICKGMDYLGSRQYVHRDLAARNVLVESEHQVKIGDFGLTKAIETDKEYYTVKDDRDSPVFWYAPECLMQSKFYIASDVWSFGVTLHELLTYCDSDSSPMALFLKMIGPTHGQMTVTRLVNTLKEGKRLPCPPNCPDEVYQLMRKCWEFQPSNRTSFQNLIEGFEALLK

[3] = molecular target: T1, Tyrosine-protein kinase JAK3 (Homo sapiens, UniProt P52333); assay: as §1
T1 sequence (P52333 whole entry): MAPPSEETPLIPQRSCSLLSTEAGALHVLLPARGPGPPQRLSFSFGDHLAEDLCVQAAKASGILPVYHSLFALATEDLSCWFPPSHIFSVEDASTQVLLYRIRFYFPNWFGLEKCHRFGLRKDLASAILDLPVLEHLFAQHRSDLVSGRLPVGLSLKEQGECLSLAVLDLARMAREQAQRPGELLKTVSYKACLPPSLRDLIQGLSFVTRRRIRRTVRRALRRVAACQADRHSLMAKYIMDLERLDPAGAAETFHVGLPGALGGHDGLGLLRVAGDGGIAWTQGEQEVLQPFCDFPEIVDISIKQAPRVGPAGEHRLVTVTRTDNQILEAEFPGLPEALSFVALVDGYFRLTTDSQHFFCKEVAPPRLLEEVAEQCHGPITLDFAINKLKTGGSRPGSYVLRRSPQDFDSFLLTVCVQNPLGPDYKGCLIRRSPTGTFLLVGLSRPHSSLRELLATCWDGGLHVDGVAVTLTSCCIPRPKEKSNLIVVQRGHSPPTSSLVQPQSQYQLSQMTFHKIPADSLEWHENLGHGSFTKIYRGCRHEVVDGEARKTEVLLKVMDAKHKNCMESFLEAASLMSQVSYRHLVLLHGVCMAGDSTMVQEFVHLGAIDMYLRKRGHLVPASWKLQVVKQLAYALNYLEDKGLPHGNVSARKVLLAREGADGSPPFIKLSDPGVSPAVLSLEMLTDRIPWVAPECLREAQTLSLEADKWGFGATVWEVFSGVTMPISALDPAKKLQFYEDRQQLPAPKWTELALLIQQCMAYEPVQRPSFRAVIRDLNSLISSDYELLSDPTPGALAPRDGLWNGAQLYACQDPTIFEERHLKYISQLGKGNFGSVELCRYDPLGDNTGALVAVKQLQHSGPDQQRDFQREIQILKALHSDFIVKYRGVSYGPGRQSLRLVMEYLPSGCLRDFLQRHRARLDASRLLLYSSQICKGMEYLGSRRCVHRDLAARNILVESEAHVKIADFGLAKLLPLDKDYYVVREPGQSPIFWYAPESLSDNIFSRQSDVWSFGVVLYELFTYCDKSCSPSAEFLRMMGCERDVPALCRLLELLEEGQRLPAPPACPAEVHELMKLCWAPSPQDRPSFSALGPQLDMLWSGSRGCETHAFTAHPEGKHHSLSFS

[4] = molecular target: Tyrosine-protein kinase JAK2 (Homo sapiens, UniProt O60674); assay: as §1, with “Final concentrations of test compound in the reaction mixture were 10000, 3333, 1111, 370, 123, 41.2, 13.7, 4.57, 1.52and 0.51 nM.” left out
Tyrosine-protein kinase JAK2, sequence (O60674 whole entry): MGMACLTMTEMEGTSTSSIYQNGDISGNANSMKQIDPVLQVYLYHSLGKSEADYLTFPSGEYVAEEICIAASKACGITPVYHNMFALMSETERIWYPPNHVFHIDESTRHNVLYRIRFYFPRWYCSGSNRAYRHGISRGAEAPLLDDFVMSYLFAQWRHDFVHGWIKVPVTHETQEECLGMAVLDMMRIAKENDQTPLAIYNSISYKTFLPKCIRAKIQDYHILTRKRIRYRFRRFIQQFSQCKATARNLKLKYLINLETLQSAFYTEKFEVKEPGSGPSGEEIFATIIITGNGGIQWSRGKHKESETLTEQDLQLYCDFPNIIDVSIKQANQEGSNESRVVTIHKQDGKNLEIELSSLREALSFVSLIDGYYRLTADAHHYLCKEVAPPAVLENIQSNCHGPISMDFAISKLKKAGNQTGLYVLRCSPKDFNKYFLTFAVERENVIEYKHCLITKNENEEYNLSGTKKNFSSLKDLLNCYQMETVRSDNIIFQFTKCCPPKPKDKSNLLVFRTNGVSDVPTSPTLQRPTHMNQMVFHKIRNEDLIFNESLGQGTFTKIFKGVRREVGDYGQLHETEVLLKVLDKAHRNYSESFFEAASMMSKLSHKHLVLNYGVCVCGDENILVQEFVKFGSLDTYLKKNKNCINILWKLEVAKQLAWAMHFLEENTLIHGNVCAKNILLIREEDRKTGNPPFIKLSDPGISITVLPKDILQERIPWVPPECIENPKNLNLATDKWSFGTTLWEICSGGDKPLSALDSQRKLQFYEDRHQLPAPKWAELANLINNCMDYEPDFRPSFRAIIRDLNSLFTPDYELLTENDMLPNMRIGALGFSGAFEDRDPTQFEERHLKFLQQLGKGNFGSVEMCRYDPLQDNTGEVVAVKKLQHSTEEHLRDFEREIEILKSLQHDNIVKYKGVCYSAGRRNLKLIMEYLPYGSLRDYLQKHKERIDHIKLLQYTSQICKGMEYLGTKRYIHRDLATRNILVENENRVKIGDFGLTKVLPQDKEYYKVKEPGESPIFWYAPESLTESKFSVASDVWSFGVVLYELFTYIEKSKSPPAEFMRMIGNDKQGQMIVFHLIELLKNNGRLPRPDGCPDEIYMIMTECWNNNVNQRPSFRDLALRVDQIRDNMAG

Measured: IC50

CC[C@H](Cn1ccc2cnc(Nc3cnn([C@@H](CCO)C(=O)O)c3)nc21)C(C)C
< 100 nM: all assays above

CCC(CC)Cn1ccc2cnc(Nc3cnn(CC(=O)OCC4OC(O)CC(O)C4O)c3)nc21 (stereo not drawn)
< 100 nM: all assays above
